From publication PMC5063900, “A phase 1 study of the safety, tolerability, pharmacokinetics, and pharmacodynamics of TAK-063, a selective PDE10A inhibitor” (Psychopharmacology, 2016)

Experiment: Treatment-emergent adverse events, phase 1 single-rising-dose study in healthy subjects
Type: in vivo, human
Experimental: Healthy Japanese and non-Japanese subjects between 18 and 55 years of age were recruited to participate in the study. Criteria for exclusion included prior treatment with any investigational compound within 30 days of the first TAK-063 dose, a positive test for drugs of abuse or nicotine, and an increased risk for suicide. […] Following a washout period of 7 days, subjects in cohort 3 (100 mg) received the same dose (100 mg) but under fed conditions.
The study assessed safety and tolerability in all subjects for the 4-day study duration. The primary endpoints were the percentage of subjects who experienced at least one treatment-emergent adverse event (TEAE), as well as the percentage of subjects who met predefined criteria for safety laboratory tests, vital sign measurements, and safety parameters following TAK-063 administration. The secondary endpoints were PK parameters for TAK-063 and M-I, assessing drug exposure at each dose, and the effect of food coadministration on TAK-063 PK. Exploratory endpoints included the effects of TAK-063 on domains of cognition as assessed by a computerized battery, CNS Vital Signs (CNSVS).
Adverse events, clinical laboratory tests, vital signs, 12-lead electrocardiograms (ECGs), and Columbia-Suicide Severity Rating Scale (C-SSRS) were all monitored. Intensity of AEs was classified as mild, moderate, or severe, and each AE was classified as to its relation to study drug.
Laboratory tests evaluated hematology, serum chemistry, urine, and hormone levels. Vital signs and ECGs were collected at screening, check-in, within 1 h predose, serially postdose, and at study exit, while the C-SSRS was administered at screening, check-in, and study exit. Any events reported on the C-SSRS and clinically significant laboratory abnormalities were reported as AEs.

[1] = all subjects, single 30 mg dose (n = 11)
[2] = all subjects, single 100 mg dose (n = 11)
[3] = all subjects, single 300 mg dose (n = 11)
[4] = all subjects, single 1000 mg dose (n = 11)
[5] = non-Japanese subjects, TAK-063 Total (n = 36)
[6] = non-Japanese subjects, single 3 mg dose (n = 6)
[7] = non-Japanese subjects, single 10 mg dose (n = 6)
[8] = non-Japanese subjects, single 30 mg dose (n = 6)
[9] = non-Japanese subjects, single 100 mg dose (n = 6)
[10] = non-Japanese subjects, single 300 mg dose (n = 6)
[11] = non-Japanese subjects, single 1000 mg dose (n = 6)

SMILES: COc1cn(-c2ccc(-n3cccn3)cc2F)nc(-c2ccnn2-c2ccccc2)c1=O [TAK-063]
- Adverse event: Somnolence [1]: 4 (36.4) n (%)
- Adverse event: Vomiting [1]: 0 n (%)
- Adverse event: Anxiety [2]: 0 n (%)
- Adverse event: Blurred vision [2]: 0 n (%)
- Adverse event: Dizziness [2]: 0 n (%)
- Adverse event: Dysarthria [2]: 0 n (%)
- Adverse event: Epistaxis [2]: 0 n (%)
- Adverse event: Headache [2]: 1 (9.1) n (%)
- Adverse event: Hypotension [2]: 1 (9.1) n (%)
- Adverse event: Muscle tightness [2]: 0 n (%)
- Adverse event: Nausea [2]: 0 n (%)
- Adverse event: Orthostatic hypotension [2]: 1 (9.1) n (%)
- Adverse event: Orthostatic tachycardia [2]: 2 (18.2) n (%)
- Adverse event: Somnolence [2]: 7 (63.6) n (%)
- Adverse event: Vomiting [2]: 1 (9.1) n (%)
- Adverse event: Anxiety [3]: 0 n (%)
- Adverse event: Blurred vision [3]: 0 n (%)
- Adverse event: Dizziness [3]: 1 (9.1) n (%)
- Adverse event: Dysarthria [3]: 0 n (%)
- Adverse event: Epistaxis [3]: 0 n (%)
- Adverse event: Headache [3]: 1 (9.1) n (%)
- Adverse event: Hypotension [3]: 0 n (%)
- Adverse event: Muscle tightness [3]: 0 n (%)
- Adverse event: Nausea [3]: 0 n (%)
- Adverse event: Orthostatic hypotension [3]: 1 (9.1) n (%)
- Adverse event: Orthostatic tachycardia [3]: 1 (9.1) n (%)
- Adverse event: Somnolence [3]: 5 (45.5) n (%)
- Adverse event: Vomiting [3]: 1 (9.1) n (%)
- Adverse event: Anxiety [4]: 1 (9.1) n (%)
- Adverse event: Blurred vision [4]: 1 (9.1) n (%)
- Adverse event: Dizziness [4]: 1 (9.1) n (%)
- Adverse event: Dysarthria [4]: 1 (9.1) n (%)
- Adverse event: Epistaxis [4]: 0 n (%)
- Adverse event: Headache [4]: 0 n (%)
- Adverse event: Hypotension [4]: 0 n (%)
- Adverse event: Muscle tightness [4]: 0 n (%)
- Adverse event: Nausea [4]: 1 (9.1) n (%)
- Adverse event: Orthostatic hypotension [4]: 5 (45.5) n (%)
- Adverse event: Orthostatic tachycardia [4]: 7 (63.6) n (%)
- Adverse event: Somnolence [4]: 6 (54.5) n (%)
- Adverse event: Vomiting [4]: 1 (9.1) n (%)
- Total incidence of TEAEs (non-Japanese subjects treated with TAK-063): 52.8%
- Adverse event: Anxiety [5]: 1 (2.8) n (%)
- Adverse event: Blurred vision [5]: 1 (2.8) n (%)
- Adverse event: Dizziness [5]: 2 (5.6) n (%)
- Adverse event: Dysarthria [5]: 1 (2.8) n (%)
- Adverse event: Headache [5]: 1 (2.8) n (%)
- Adverse event: Hypotension [5]: 1 (2.8) n (%)
- Adverse event: Nausea [5]: 2 (5.6) n (%)
- Adverse event: Orthostatic hypotension [5]: 3 (8.3) n (%)
- Adverse event: Orthostatic tachycardia [5]: 8 (22.2) n (%)
- Adverse event: Somnolence [5]: 12 (33.3) n (%)
- Adverse event: Vomiting [5]: 1 (2.8) n (%)
- Adverse event: Anxiety [6]: 0 n (%)
- Adverse event: Blurred vision [6]: 0 n (%)
- Adverse event: Dizziness [6]: 0 n (%)
- Adverse event: Dysarthria [6]: 0 n (%)
- Adverse event: Headache [6]: 0 n (%)
- Adverse event: Hypotension [6]: 0 n (%)
- Adverse event: Nausea [6]: 0 n (%)
- Adverse event: Orthostatic hypotension [6]: 0 n (%)
- Adverse event: Orthostatic tachycardia [6]: 2 (33.3) n (%)
- Adverse event: Somnolence [6]: 0 n (%)
- Adverse event: Vomiting [6]: 0 n (%)
- Adverse event: Anxiety [7]: 0 n (%)
- Adverse event: Blurred vision [7]: 0 n (%)
- Adverse event: Dizziness [7]: 0 n (%)
- Adverse event: Dysarthria [7]: 0 n (%)
- Adverse event: Headache [7]: 0 n (%)
- Adverse event: Hypotension [7]: 0 n (%)
- Adverse event: Nausea [7]: 0 n (%)
- Adverse event: Orthostatic hypotension [7]: 0 n (%)
- Adverse event: Orthostatic tachycardia [7]: 0 n (%)
- Adverse event: Somnolence [7]: 0 n (%)
- Adverse event: Vomiting [7]: 0 n (%)
- Adverse event: Anxiety [8]: 0 n (%)
- Adverse event: Blurred vision [8]: 0 n (%)
- Adverse event: Dizziness [8]: 1 (16.7) n (%)
- Adverse event: Dysarthria [8]: 0 n (%)
- Adverse event: Headache [8]: 0 n (%)
- Adverse event: Hypotension [8]: 0 n (%)
- Adverse event: Nausea [8]: 2 (33.3) n (%)
- Adverse event: Orthostatic hypotension [8]: 0 n (%)
- Adverse event: Orthostatic tachycardia [8]: 0 n (%)
- Adverse event: Somnolence [8]: 3 (50.0) n (%)
- Adverse event: Vomiting [8]: 0 n (%)
- Adverse event: Anxiety [9]: 0 n (%)
- Adverse event: Blurred vision [9]: 0 n (%)
- Adverse event: Dizziness [9]: 0 n (%)
- Adverse event: Dysarthria [9]: 0 n (%)
- Adverse event: Headache [9]: 0 n (%)
- Adverse event: Hypotension [9]: 1 (16.7) n (%)
- Adverse event: Nausea [9]: 0 n (%)
- Adverse event: Orthostatic hypotension [9]: 0 n (%)
- Adverse event: Orthostatic tachycardia [9]: 2 (33.3) n (%)
- Adverse event: Somnolence [9]: 3 (50.0) n (%)
- Adverse event: Vomiting [9]: 0 n (%)
- Adverse event: Anxiety [10]: 0 n (%)
- Adverse event: Blurred vision [10]: 0 n (%)
- Adverse event: Dizziness [10]: 1 (16.7) n (%)
- Adverse event: Dysarthria [10]: 0 n (%)
- Adverse event: Headache [10]: 1 (16.7) n (%)
- Adverse event: Hypotension [10]: 0 n (%)
- Adverse event: Nausea [10]: 0 n (%)
- Adverse event: Orthostatic hypotension [10]: 0 n (%)
- Adverse event: Orthostatic tachycardia [10]: 0 n (%)
- Adverse event: Somnolence [10]: 3 (50.0) n (%)
- Adverse event: Vomiting [10]: 1 (16.7) n (%)
- Adverse event: Anxiety [11]: 1 (16.7) n (%)
- Adverse event: Blurred vision [11]: 1 (16.7) n (%)
- Adverse event: Dizziness [11]: 0 n (%)
- Adverse event: Dysarthria [11]: 1 (16.7) n (%)
- Adverse event: Headache [11]: 0 n (%)
- Adverse event: Hypotension [11]: 0 n (%)
- Adverse event: Nausea [11]: 0 n (%)
- Adverse event: Orthostatic hypotension [11]: 3 (50.0) n (%)
- Adverse event: Orthostatic tachycardia [11]: 4 (66.7) n (%)
- Adverse event: Somnolence [11]: 3 (50.0) n (%)
- Adverse event: Vomiting [11]: 0 n (%)
- Association with hyperprolactinemia, hyperglycemia, or other metabolic disturbances (single dose): not associated
- Deaths, serious AEs (single doses 3 to 1000 mg): No deaths or other serious AEs were reported
- Maximum tolerated dose (single doses up to 1000 mg): not defined
- Safety and tolerability (single doses up to 1000 mg): safe and well tolerated
